# Data as given in article PMC11156954, “Inhibition and transport mechanisms of the ABC transporter hMRP5” (Nature Communications, 2024).
# Entries after “also recorded” stand apart in the source; their conditions may differ. No end group written: not given here.
# Key:
# GFP-hMRP5 = experiment: Doxorubicin transport assay in Xenopus laevis oocytes; assay type: cell-based, human; settings: oocytes expressing both hMRP5 and M5PI vs only hMRP5; 200 μM doxorubicin, 180 min; two-tailed t-test *P = 0.0442
# Procedure: The transport assay was essentially done and modified as described. In brief, the cRNAs of C-terminal GFP-tagged hMRP5 and C-terminal mcherry-tagged M5PI were prepared from the linearized pcs2CAG vector DNA templates using the mMESSAGE mMACHINE T7 transcription system (Thermo Scientific, AM1344). Xenopus oocytes were injected with approximately 30 nl of cRNA (GFP-tagged hMRP5 and mcherry-tagged M5PI have the equal quantity 30 ng) or water after maintained in ND96 solution (96 mM NaCl, 2 mM KCl, 1 mM MgCl2, 1.8 mM CaCl2, 5 mM HEPES, pH 7.4) overnight. After 3 days of culture, the GFP and mcherry fluorescence of oocytes was detected using Nikon Confocal A1R, and oocytes showing similar fluorescence intensity were selected for assay. Then, oocytes were pre-incubated in Kulori buffer (90 mM NaCl, 1 mM KCl, 1 mM MgCl2, 5 mM HEPES, pH 7.4) for 5 min before being transferred to 1 ml Kulori buffer containing 200 μM doxorubicin for 180 min. The assay was stopped by removing the buffer and then washed with Kulori buffer at least 3 times and transferred into 1.5 ml tubes (3 oocytes per tube). Excess washing buffer was removed from the tube, and then 50 μl 50% methanol was added to the tube for oocyte homogenization by pipetting. The homogenized samples were centrifuged at 10,000 × g for 10 min at 4 °C, and the supernatants were transferred into new tubes and incubated at −20 °C until further analysis. The samples were acquired with a Q Exactive mass spectrometer coupled with UltiMate 3000 liquid chromatography system (Thermo scientific, CA, USA) after centrifugation at 20,000 × g for 15 min at 4 °C. A Hypersil GOLDTM C18 column (2.1 ×100 mm, 1.9 μm, Thermo Scientific) was used at a flow rate of 0.3 ml min^−1 for separation. Mobile phase A was 0.1% formic acid, while mobile phase B was acetonitrile modified with 0.1% formic acid. The mass spectrometer was operated in positive mode with a spray voltage of 3.5 kV. Full scan mass spectrometry data were recorded from the m/z range of 80–800. A standard dilution curve for quantification of doxorubicin was done. Statistical analysis of the transport assay results was performed using GraphPad Prism. Source data is provided as Source Data 6. The mass spectrometry data is provided as Supplementary Data 3.
# hMRP4 = biological target: T1, hMRP4 (Homo sapiens, UniProt O15439); experiment: MST binding assay, hMRP4; settings: MST, three independent measurements
# T1 sequence (O15439 1-1325): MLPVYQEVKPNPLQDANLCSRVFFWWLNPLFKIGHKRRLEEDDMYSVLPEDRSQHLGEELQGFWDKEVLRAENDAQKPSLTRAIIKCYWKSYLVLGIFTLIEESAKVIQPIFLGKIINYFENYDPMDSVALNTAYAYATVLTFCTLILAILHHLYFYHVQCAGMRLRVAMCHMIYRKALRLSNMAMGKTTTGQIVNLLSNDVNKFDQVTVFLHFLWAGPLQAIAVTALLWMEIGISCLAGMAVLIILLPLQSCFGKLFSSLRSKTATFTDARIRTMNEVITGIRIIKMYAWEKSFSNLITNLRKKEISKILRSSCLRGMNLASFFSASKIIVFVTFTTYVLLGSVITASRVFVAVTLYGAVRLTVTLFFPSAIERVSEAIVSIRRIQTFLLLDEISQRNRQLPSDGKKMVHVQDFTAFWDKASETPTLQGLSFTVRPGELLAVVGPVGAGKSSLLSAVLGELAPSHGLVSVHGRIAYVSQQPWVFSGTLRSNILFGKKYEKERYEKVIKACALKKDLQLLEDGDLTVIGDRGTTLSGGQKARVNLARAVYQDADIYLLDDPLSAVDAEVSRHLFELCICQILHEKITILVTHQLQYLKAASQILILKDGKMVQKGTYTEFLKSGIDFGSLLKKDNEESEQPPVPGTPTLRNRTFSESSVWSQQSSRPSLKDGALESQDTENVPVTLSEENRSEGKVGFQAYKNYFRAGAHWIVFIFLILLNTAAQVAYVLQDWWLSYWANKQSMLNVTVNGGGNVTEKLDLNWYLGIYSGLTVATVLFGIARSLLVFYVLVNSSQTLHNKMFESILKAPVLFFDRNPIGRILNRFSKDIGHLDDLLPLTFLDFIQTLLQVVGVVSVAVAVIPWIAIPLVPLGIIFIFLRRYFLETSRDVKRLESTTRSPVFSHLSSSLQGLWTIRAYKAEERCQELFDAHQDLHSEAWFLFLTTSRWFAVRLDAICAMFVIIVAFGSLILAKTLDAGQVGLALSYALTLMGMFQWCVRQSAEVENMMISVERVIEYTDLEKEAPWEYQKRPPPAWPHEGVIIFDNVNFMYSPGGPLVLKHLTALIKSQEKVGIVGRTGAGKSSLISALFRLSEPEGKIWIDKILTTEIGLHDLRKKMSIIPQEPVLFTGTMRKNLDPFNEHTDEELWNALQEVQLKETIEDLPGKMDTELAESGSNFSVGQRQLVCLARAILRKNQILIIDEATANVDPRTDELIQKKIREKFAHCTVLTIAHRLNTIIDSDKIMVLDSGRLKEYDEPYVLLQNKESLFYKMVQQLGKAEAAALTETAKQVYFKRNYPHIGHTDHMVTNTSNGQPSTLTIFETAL
sequence,measurement,setting,value
CSKFRRTRPLECQDALETAARAEGLSLDASMHSQLRILDEC (cysteines drawn unpaired) [M5PI],"inhibition of doxorubicin transport, in words",GFP-hMRP5,contained a relatively higher amount of doxorubicin than oocytes expressing only hMRP5
same,"binding affinity to hMRP4, in words",hMRP4,not detectable; also recorded: could not be estimated through MST test; also recorded: rarely
